Source: patent US20230365561A1, “BETA-LACTAMASE INHIBITORS AND THEIR PREPARATION” (NINGXIA ACADEMY OF AGRICUL TURE AND FORESTRY SCIENCES, priority 2020, published 2023)
Structures can show the parent of a compound that is named as a salt. Where two headings read alike, the source gives them in different places.

Tests used:
Type in all cases: cell-based
[1] = system: E. coli clinical isolate (strain 1); experiment: MIC by broth microdilution (alone and in combination with meropenam), strain 1; details: Escherichia coli, compound alone
Method: (§1) Compounds of the present invention alone, meropenam (MER) alone, and as a combination with test antibiotic (meropenam) were tested for antimicrobial activity by determing minimum inhibitory concentration (MIC, mg/L) using the broth microdilution method according to the guidelines of the Clinical Laboratories and Stansards Insitute (“Methods for Dilution Antimicrobial Suscetibility Tests for Bacterial that Grow Aerobiclly”, Approved standard, […]., Clinical and Laboratories Stanards Institute (CLSI) Document M7-A8, Wayne, Pa., USA, 2009). Meropenam as a test antibiotic compound was dissolved in DMSO. Meropenam was then diluted in microbial growth medium (Mueller-Hinton Broth II, cation adjusted) resulting in a final concention range of 0.125-64 mg/L in serial two-fold dilution. In all cases the filnal DMSO concentraion was less than 0.5%. Bacteria were added to 96-well microtitre plates containing the serial two-fold dilutions of the compoumds; the final cell density was appoximately 5x10^5 colony forming units/mL (CFU/mL). Plates were incubated at 37° C. for 18-24 hours and read visually. The MIC, i.e. the lowest concentration of the test compound that inhibited visible growth of the bacteria, was recorded. The same assay conditions were used when the compounds of present invention alone, and as a combination with test meropenam antibiotic compound was tested for minmum inhibitory concentration (MIC, mg/L). Whileest meropenam was serially diluted as descrribed above, a constant concentration of the present invention of 4 µg/mL was used.
(§2) Bacterial strains that were used to evaluate the antimicrobial activity using the MIC determination included but were not limited to E. coli clinical isolate (strain 1), E. coli 8739 (strain 2), K. pneumoniae clinical isolate (strain 3), K. pneumoniae 700603 (strain 4), E. cloacae clinical isolate (strain 5), E. cloacae 700323 (strain 6), A. baumannii clinical isolate (strain 7), A. baumannii 19606 (strain 8), P. aeruginosa clinical isolate (strain 9), P. aeruginosa 9027 (strain 10).

E. coli 8739 (strain 2) = experiment: MIC by broth microdilution (alone and in combination with meropenam), strain 2; details: Escherichia coli, compound alone
Method: as §1, §2

[2] = system: K. pneumoniae clinical isolate (strain 3); experiment: MIC by broth microdilution (alone and in combination with meropenam), strain 3; details: Klebsiella pneumoniae, compound alone
Method: as §1, §2

[3] = system: K. pneumoniae 700603 (strain 4); experiment: MIC by broth microdilution (alone and in combination with meropenam), strain 4; details: Klebsiella pneumoniae, compound alone
Method: as §1, §2

[4] = system: E. cloacae clinical isolate (strain 5); experiment: MIC by broth microdilution (alone and in combination with meropenam), strain 5; details: Enterobacter cloacae, compound alone
Method: as §1, §2

[5] = system: E. cloacae 700323 (strain 6); experiment: MIC by broth microdilution (alone and in combination with meropenam), strain 6; details: Enterobacter cloacae, compound alone
Method: as §1, §2

[6] = system: A. baumannii clinical isolate (strain 7); experiment: MIC by broth microdilution (alone and in combination with meropenam), strain 7; details: Acinetobacter baumannii, compound alone
Method: as §1, §2

[7] = system: A. baumannii 19606 (strain 8); experiment: MIC by broth microdilution (alone and in combination with meropenam), strain 8; details: Acinetobacter baumannii, compound alone
Method: as §1, §2

[8] = system: P. aeruginosa clinical isolate (strain 9); experiment: MIC by broth microdilution (alone and in combination with meropenam), strain 9; details: Pseudomonas aeruginosa, compound alone
Method: as §1, §2

[9] = system: P. aeruginosa 9027 (strain 10); experiment: MIC by broth microdilution (alone and in combination with meropenam), strain 10; details: Pseudomonas aeruginosa, compound alone
Method: as §1, §2

[10] = read-out: MIC, antibacterial activity of example alone

Measured: MIC

N=C(NC(=O)C1CCNCC1)[C@@H]1CC[C@@H]2CN1C(=O)N2OS(=O)(=O)[O-].[Na+] [Ex.18, Sodium (2S,5R)-7-oxo-2-(N-(piperidine-4-carbonyl)carbamimidoyl)-1,6-diazabicyclo[3.2.1]octan-6-yl Sulfate]
> 64 µg/mL: [1]; [10] | E. coli 8739 (strain 2); [10] | [2]; [10] | [3]; [10] | [4]; [10] | [5]; [10] | [6]; [10] | [7]; [10] | [8]; [10] | [9]; [10]

N=C(NC(=O)Cn1ccnc1)[C@@H]1CC[C@@H]2CN1C(=O)N2OS(=O)(=O)[O-].[Na+] [Ex.39, Sodium (2S,5R)-2-(N-(2-(1H-imidazol-1-yl)acetyl)carbamimidoyl)-7-oxo-1,6-diazabicyclo[3.2.1]octan-6-yl Sulfate]
> 64 µg/mL: [1]; [10] | E. coli 8739 (strain 2); [10] | [2]; [10] | [3]; [10] | [4]; [10] | [5]; [10] | [6]; [10] | [7]; [10] | [8]; [10] | [9]; [10]

N=C(NC(=O)c1ccc(C(F)(F)F)cn1)[C@@H]1CC[C@@H]2CN1C(=O)N2OS(=O)(=O)[O-].[Na+] [Ex.50, Sodium (2S,5R)-7-oxo-2-(N-(5-(trifluoromethyl)picolinoyl)carbamimidoyl)-1,6-diazabicyclo[3.2.1]octan-6-yl Sulfate]
> 64 µg/mL: [1]; read-out: MIC | E. coli 8739 (strain 2); read-out: MIC | [2]; read-out: MIC | [3]; read-out: MIC | [4]; read-out: MIC | [5]; read-out: MIC | [6]; read-out: MIC | [7]; read-out: MIC | [8]; read-out: MIC | [9]; read-out: MIC

CN1CCC[C@H](C(=O)NC(=N)[C@@H]2CC[C@@H]3CN2C(=O)N3OS(=O)(=O)[O-])C1.[Na+] [Ex.28, Sodium (2S,5R)-2-(N-((S)-1-methylpiperidine-3-carbonyl)carbamimidoyl)-7-oxo-1,6-diazabicyclo[3.2.1]octan-6-yl Sulfate]
> 64 µg/mL: [1]; [10] | E. coli 8739 (strain 2); [10] | [2]; [10] | [3]; [10] | [4]; [10] | [5]; [10] | [6]; [10] | [7]; [10] | [8]; [10] | [9]; [10]

CCC(=O)NC(=N)[C@@H]1CC[C@@H]2CN1C(=O)N2OS(=O)(=O)[O-].[Na+] [Ex.3, Sodium (2S,5R)-7-oxo-2-(N-propionylcarbamimidoyl)-1,6-diazabicyclo[3.2.1]octan-6-yl Sulfate]
> 64 µg/mL: [1]; [10] | E. coli 8739 (strain 2); [10] | [2]; [10] | [3]; [10] | [4]; [10] | [5]; [10] | [6]; [10] | [7]; [10] | [8]; [10] | [9]; [10]

N=C(NC(=O)Cc1cccnc1)[C@@H]1CC[C@@H]2CN1C(=O)N2OS(=O)(=O)[O-].[Na+] [Ex.34, Sodium (2S,5R)-7-oxo-2-(N-(2-(pyridin-3-yl)acetyl)carbamimidoyl)-1,6-diazabicyclo[3.2.1]octan-6-yl sulfate]
> 64 µg/mL: [1]; [10] | E. coli 8739 (strain 2); [10] | [2]; [10] | [3]; [10] | [4]; [10] | [5]; [10] | [6]; [10] | [7]; [10] | [8]; [10] | [9]; [10]

N=C(NC(=O)c1ccc(C(F)(F)F)nc1)[C@@H]1CC[C@@H]2CN1C(=O)N2OS(=O)(=O)[O-].[Na+] [Ex.6, Sodium (2S,5R)-7-oxo-2-(N-(6-(trifluoromethyl)nicotinoyl)carbamimidoyl)-1,6-diazabicyclo[3.2.1]octan-6-yl Sulfate]
> 64 µg/mL: [1]; [10] | E. coli 8739 (strain 2); [10] | [2]; [10] | [3]; [10] | [4]; [10] | [5]; [10] | [6]; [10] | [7]; [10] | [8]; [10] | [9]; [10]

CC(=O)N1CC[C@@H](C(=O)NC(=N)[C@@H]2CC[C@@H]3CN2C(=O)N3OS(=O)(=O)O)C1 [Ex.31, Sodium (2S,5R)-2-(N-((R)-1-acetylpyrrolidine-3-carbonyl)carbamimidoyl)-7-oxo-1,6-diazabicyclo[3.2.1]octan-6-yl Sulfate]
> 64 µg/mL: [1]; [10] | E. coli 8739 (strain 2); [10] | [2]; [10] | [3]; [10] | [4]; [10] | [5]; [10] | [6]; [10] | [7]; [10] | [8]; [10] | [9]; [10]

N=C(NC(=O)CC1CCCCC1)[C@@H]1CC[C@@H]2CN1C(=O)N2OS(=O)(=O)[O-].[Na+] [Ex.36, Sodium (2S,5R)-2-(N-(2-cyclohexylacetyl)carbamimidoyl)-7-oxo-1,6-diazabicyclo[3.2.1]octan-6-yl Sulfate]
> 64 µg/mL: [1]; [10] | E. coli 8739 (strain 2); [10] | [2]; [10] | [3]; [10] | [4]; [10] | [5]; [10] | [6]; [10] | [7]; [10] | [8]; [10] | [9]; [10]

CC(=O)NC(=N)[C@@H]1CC[C@@H]2CN1C(=O)N2OS(=O)(=O)O [Ex.9, (2S,5R)-2-(N-acetylcarbamimidoyl)-7-oxo-1,6-diazabicyclo[3.2.1]octan-6-yl Hydrogen Sulfate]
> 64 µg/mL: [1]; [10] | E. coli 8739 (strain 2); [10] | [2]; [10] | [3]; [10] | [4]; [10] | [5]; [10] | [6]; [10] | [7]; [10] | [8]; [10] | [9]; [10]

N=C(NC(=O)C1CCCCC1)[C@@H]1CC[C@@H]2CN1C(=O)N2OS(=O)(=O)[O-].[Na+] [Ex.37, Sodium (2S,5R)-2-(N-(cyclohexanecarbonyl)carbamimidoyl)-7-oxo-1,6-diazabicyclo[3.2.1]octan-6-yl Sulfate]
> 64 µg/mL: [1]; [10] | E. coli 8739 (strain 2); [10] | [2]; [10] | [3]; [10] | [4]; [10] | [5]; [10] | [6]; [10] | [7]; [10] | [8]; [10] | [9]; [10]
